Patent US11891442B2, “Compositions and methods for treating age-related diseases” (priority 2017, dated 2024)
“Also recorded” adds a separate entry of the source.

Experiments:
Format in all cases: cell-based, mouse
BV2 cells [1] = test: In vitro phagocytosis assay of pH-dependent fluorescent particles; details: for Phagocytosis of pH-sensitive fluorescent beads by BV2 cells: WT BV2, time-lapse microscopy 24 hours, sialidase 400 nM 1 hour, 3Fax-Neu5Ac 32 uM; for Phagocytosis of pH-dependent fluorescent particles by BV2 cells: wild-type BV2, no serum or young serum prior to feeding, monitored over 24 hours
Experimental: (§1) For in vitro phagocytosis assays, cells were split into a 24-well plate 8-24 hours prior to serum treatment at a density of 50,000 cells/well. Following specific treatments, wells were washed twice with PBS and fed pHrodo-labeled 3 μm amino-coated polystyrene particles (Polysciences) at a ratio of 10 particles per cell or crude myelin, isolated as previously described^47, at 1 mg/mL. pHrodo labeling was carried out as previously described to minimize background fluorescence^37. 4 phase and red fluorescent images per well were acquired every hour for 24 hours using the Incucyte S3 live cell analysis system (Essen Bioscience). For each time point, normalized phagocytosis was calculated using the following formula: red object area/phase confluence. To combine data from independent experiments, phagocytosis was calculated relative to control by setting phagocytosis at zero hours in the no serum control cell condition to 0, and this value at 24 hours to 1. Technical triplicates for each experiment were averaged, and the average of three independent experiments was reported.
For sialidase treatment, cells were incubated with 400 nM Vibrio cholerae sialidase for 1 hour at 37° C. in serum-free DMEM following serum treatment and prior to feeding. 3Fax-Neu5Ac (R&D) was used as previously described^33. The inhibitor was used at a concentration of 32 μM serially diluted in DMSO and used at a final concentration of 0.1% DMSO in DMEM. 3Fax-Neu5Ac was added with serum treatments for 48 hours prior to phagocytosis assays, and replaced in the feeding medium.
Cells were split into a 24-well plate 24 hours prior to feeding at a density of 50,000 cells/well in serum free medium. Following specific treatments, wells were washed twice with PBS and fed pHrodo-labeled 3 micron amino-coated polystyrene particles (Polysciences) at a ratio of 10 particles per cell. pHrodo labeling was carried out as previously described to minimize background fluorescence^37. 4 phase and red fluorescent images per well were acquired every hour for 24 hours using the Incucyte S3 live cell analysis system (Essen Bioscience). For each time point, normalized phagocytosis was calculated using the following formula: red object area/phase confluence. To combine data from independent experiments, phagocytosis relative to control was calculated by setting phagocytosis at zero hours in the control condition to 0, and this value at 24 hours to 1. Technical triplicates for each experiment were averaged, and the average of three independent experiments was identified.
Cells were incubated with 400 nM Vibrio cholerae sialidase for 1 hour at 37° C. in serum-free DMEM prior to phagocytosis. 3Fax-Neu5Ac (R&D) was used as previously described^58. The inhibitor was used at a concentration of 32 uM serially diluted in DMSO and used at a final concentration of 0.1% DMSO in DMEM. 3Fax-Neu5Ac was added with serum treatments for 48 hours prior to phagocytosis assays, and replaced in the feeding medium.

primary microglia = test: Ex vivo microglial phagocytosis assay
Experimental: Whole brain myelin-depleted single-cell suspensions were prepared as described above. Next, a rough estimation of microglia counts from each brain was determined by strictly gating a volume-designated aliquot of the suspensions by forward scatter/side scatter on a flow cytometer (BD Accuri C6). Each suspension was adjusted to contain equal numbers of microglia per unit volume. Then, single cell brain suspensions were treated with sialidase, a CD22 blocking antibody (R&D), or no treatment for 1 hour at 37° C. with periodic agitation. Treatments were washed out and cells were resuspended in FACS buffer containing pHrodo- or CypHer5E-conjugated particles at a ratio of 50 particles per microglia. The cell-particle mixture was incubated for 1-2 hours at 37° C. with periodic agitation. Phagocytosis was stopped by transferring the suspensions to ice, where the cells were stained with antibodies to distinguish microglia. Microglial phagocytosis was assessed by flow cytometry by pre-gating live CD11b+CD45lo cells and assessing pH dependent particle fluorescence within this population. The eating gate was determined using an unfed control, and confirmed by sorting an aliquot of the sample into noneating and eating populations by FACS followed by microscopic assessment.
Whole brain myelin-depleted single-cell suspensions were prepared as described above. Next, a rough estimation of microglia counts from each brain was determined by strictly gating a volume-designated aliquot of the suspensions by forward scatter/side scatter on a flow cytometer (BD Accuri C6). Each suspension was adjusted to contain equal microglia per unit volume. Then, single cell brain suspensions were treated accordingly for 1 hour in serum free DMEM-F12 at 37° C. with periodic agitation. Treatments were washed out and cells were resuspended in FACS buffer containing pHrodo- or CypHer5E-conjugated particles at a ratio of 50 particles per microglia. The cell-particle mixture was incubated for 1-2 hours at 37° C. with periodic agitation. Phagocytosis was stopped by transferring the suspensions to ice, where the cells were stained with antibodies to distinguish microglia. Microglial phagocytosis was assessed by flow cytometry by pre-gating live CD11b+CD45lo cells and assessing pH-dependent particle fluorescence within this population. The eating gate was determined using an unfed control, and confirmed by sorting an aliquot of the sample into non-eating and eating populations by FACS followed by microscopic assessment.

BV2 cells [2] = test: Lectin (SNA, MAA) staining of cell-surface sialic acid by flow cytometry; details: WT BV2 cells pretreated with sialidase
Source text: Antibodies to CD11b (clone M1/70, BioLegend) and CD45 (clone 30-F11, Biolegend) were used for microglia identification (CD11b+CD45lo). For primary microglia immunophenotyping, the following lectins and antibodies were used: biotinylated Sambucus nigra agglutinin (SNA, Vector Labs), biotinylated Maackia amurensis agglutinins (MAA-1 and MAA-2, Vector), biotinylated Erythrina cristagalli lectin (ECL, EY Labs), biotinylated wheat germ agglutinin (WGA, Vector), recombinant mouse Siglec-E (R&D), recombinant mouse Siglec-F (R&D), antibodies to mouse Siglec-1 (clone REA197, Miltenyi Biotec), CD22 (clone OX-97, Biolegend), Siglec-E (clone M1304A01, Biolegend), Siglec-F (clone ES22-10D8, Miltenyi Biotec), Siglec-G (clone SH1, BD Biosciences), Siglec-H (clone 551, Biolegend), CD33 (clone 9A11, eBioscience), Galectin-3 (clone M3/38, Biolegend). For immunostaining, cells were passed through a 100 μm strainer, blocked for 10 minutes on ice with mouse Fc-blocking reagent (BD), and stained for 30 minutes on ice in DPBS containing calcium and magnesium supplemented with 1% bovine serum albumin. […] Data was analyzed using FlowJo software (TreeStar).
Antibodies to CD11b (clone M1/70, BioLegend) and CD45 (clone 30-F11, Biolegend) were used for microglia identification (CD11b+CD45lo). […] Data was analyzed using FlowJo software (TreeStar).

peritoneal macrophages = test: Peritoneal macrophage phagocytosis of pH-dependent fluorescent latex particles; details: aged (20-month-old) compared to young (2-month-old) macrophages; sialidase
Experimental: as §1
For sialidase treatment, cells were incubated with 400 nM Vibrio cholerae sialidase for 1 hour at 37° C. in serum-free DMEM following serum treatment and prior to feeding. 3Fax-Neu5Ac (R&D) was used as previously described^33. […]

Row | Compound | Phagocytosis of pH-sensitive fluorescent beads by BV2 cells (BV2 cells [1]) | Phagocytosis of pH-dependent fluorescent particles by BV2 cells (BV2 cells [1]) | Engulfment of pH-dependent beads by BV2 cells (flow cytometry) (BV2 cells [1]; 1 hour of feeding, used to define eating gate) | Ex vivo phagocytosis by microglia from aged CD22−/− mice (primary microglia; aged (18 m.o.) CD22−/−) | Ex vivo phagocytosis of latex particles by aged microglia (primary microglia; aged WT mice, 1 hour pretreatment, flow cytometry) | Ex vivo phagocytosis by microglia from 12-month-old CD22−/− mice (primary microglia; relative to age-matched wild-type control microglia) | Ex vivo phagocytosis of latex particles by young microglia (primary microglia; young (2-month-old) mice) | SNA and MAA ligand expression on the cell surface (BV2 cells [2]) | Phagocytosis by peritoneal macrophages (peritoneal macrophages) | Phagocytosis of pH-sensitive fluorescent beads by CD22 KO BV2 cells (BV2 cells [1]; CD22 KO BV2 + sialidase)
1 | COC(=O)C1(OC(C)=O)OC([C@H](OC(C)=O)[C@@H](COC(C)=O)OC(C)=O)C(NC(C)=O)C(OC(C)=O)C1F (stereo partly drawn) [3Fax-Neu5Ac, reference compound] | promotes phagocytosis in BV2 cells | promoted phagocytosis in the no serum condition only |  |  |  |  |  |  |  | 
2 | C=C1[C@@H](C)[C@H]2[C@H](Cc3ccccc3)NC(=O)[C@]23[C@H](OC(C)=O)/C=C/[C@@](C)(O)C(=O)[C@@H](C)C/C=C/[C@H]3[C@@H]1O [cytochalasin D, reference compound] |  |  | actin polymerization is blocked preventing engulfment |  |  |  |  |  |  | 
3 | sialidase: Sialidase from Vibrio cholerae expressed in Escherichia coli C600; removes cell-surface sialic acid | promotes phagocytosis in BV2 cells | promote phagocytosis in the absence of young serum |  | had no effect in CD22−/− microglia | rescued phagocytosis in aged microglia; also recorded: promoted phagocytosis in WT microglia | reduced pro-phagocytic response to sialidase | did not enhance phagocytosis in already competent young microglia | reduce sialic acid ligands on the cell surface | increased phagocytosis dramatically in aged macrophages | completely abrogated in the absence of CD22
